Experimental data reported in US7662853B2, “Monoacetyldiacylglycerol derivative for the treatment of sepsis” (priority 2004, dated 2010).

How the values were obtained:
[1] = tested on: Monocytes; test: Monocytes proliferation (3H-thymidine incorporation, SI); format: cell-based; settings: human monocytes, 1 μg/ml, 7th day
Method: Monocytes were isolated from human whole blood using Histopaque 1077. And then, monocytes (5×10^6 cells/ml) were allowed to adhere to tissue culture flask for 3 hours in a 5% CO2 incubator. After 3 hours, non-adherent cells were removed and adherent cells were placed in 96-well plates in RPMI 1640 medium (GIBCO, Grand Island, N.Y.) supplemented with 10% FBS. 5×10^4 viable cells per well were cultured in 96-well plates, with 1 μg/ml of Compound 1˜5. On the 6th day, cells were incubated with 1 μCi ^3H-thymidine/well for 24 hours. On the 7th day, the cells were harvested and the incorporation of ^3H-thymidine was measured. Si was calculated by the above mentioned formula 1.

[2] = tested on: T-cells; test: T-cell proliferation (3H-thymidine incorporation, SI); format: cell-based, C57BL/6 mice; settings: 1 μg/ml, 7th day, CPM in sample/CPM in control
Excerpt: Splenocytes were collected from C57BL/6 mice (provided from Asan Institute for Life Sciences Animal Lab., Seoul, Korea) spleens. Then, single cell suspensions were obtained by repeated aspiration and flushing. Red blood cells were removed using ammonium chloride and then passed through nylon wool to remove debris and clumps. T-cells were purified using magnetic bead (MACS bead, Miltenyi Biotec, bergich gladbach, Germany) containing anti-goat IgG MACS bead, Miltenyi Biotec, bergich gladbach, Germany) or anti-mouse CD4 (MACS bead, Miltenyi Biotec, bergich gladbach, Germany) or anti-mouse CD8 antibody (MACS bead, Miltenyi Biotec, bergich gladbach, Germany) (Turner and Dockrell (1996) Immunology, 87: 339-342).
T cell suspensions were suspended in Isocove's modified Dulbecco's medium (IMDM, Gibco, Grand Island, N.Y.) supplemented with 10% fetal bovine serum (referred as ‘FBS’ hereinafter) (Gibco, Grand Island, N.Y.). […] On the 6th day, cells were incubated with 1 μCi ^3H-thymidine/well for 24 hours. On the 7th day, the cells were harvested and the […] (referred as ‘SI’ hereinafter) was calculated by the following Mathematical Formula 1. SI=^3H-thymidine absorbed by wells of experimental group (CPM in sample)/^3H-thymidine absorbed by wells of control group (CPM in control) [Mathematical Formula 1]

Row | Structure (SMILES) | SI (±S.E) [1] | SI [2]
1 | CCCCCCCC/C=C\CCCCCCCC(=O)OCC(COC(C)=O)OC(=O)CCCCCCCCCCCCCCC (centres unmarked) [Compound 1, 1-oleoyl-2-2palmitoyl-3-acetylglycerol] | 9.97 ± 0.10 | 2.01 ± 0.43
2 | CCCCCCCC/C=C\CCCCCCCC(=O)OC(COC(C)=O)COC(=O)CCCCCCCCCCCCCCC (centres unmarked) [Compound 2, 1-palmitoyl-2-oleoyl-3-acetylglycerol] | 10.42 ± 0.15 | 2.03 ± 0.54
3 | CC/C=C\C/C=C\C/C=C\CCCCCCCC(=O)OC(COC(C)=O)COC(=O)CCCCCCCCCCCCCCC (centres unmarked) [Compound 4, 1-palmitoyl-2-linolenoyl-3-acetylglycerol] | 10.21 ± 0.18 | 1.98 ± 0.26
4 | CCCCC/C=C\C/C=C\C/C=C\C/C=C\CCCC(=O)OC(COC(C)=O)COC(=O)CCCCCCCCCCCCCCC (centres unmarked) [Compound 5, 1-palmitoyl-2-arachidonoyl-3-acetylglycerol] | 9.75 ± 0.09 | 2.02 ± 0.38
